According to patent publication US20240279159A1, “HERBICIDAL ARYLCYCLOPENTENE CARBOXAMIDES” (BASF SE, priority 2021, published 2024):

Legend:
[1] = tested on: AMARE; test: greenhouse herbicidal test, post-emergence treatment; assay type: in vivo, Amaranthus retroflexus; conditions: post-emergence method, scale from 0 to 100
Source text: (§1) The culture containers used were plastic flowerpots containing loamy sand with approximately 3.0% of humus as the substrate. The seeds of the test plants were sown separately for each species.
(§2) For the pre-emergence treatment, the active ingredients, which had been suspended or emulsified in water, were applied directly after sowing by means of finely distributing nozzles. The containers were irrigated gently to promote germination and growth and subsequently covered with transparent plastic hoods until the test plants had rooted. This cover caused uniform germination of the test plants, unless this had been impaired by the active ingredients. For the post-emergence treatment, the test plants were first grown to a height of 3 to 15 cm, depending on the plant habit, and only then treated with the active ingredients which had been suspended or emulsified in water. For this purpose, the test plants were either sown directly and grown in the same containers, or they were first grown separately as seedlings and transplanted into the test containers a few days prior to treatment.
(§3) Depending on the species, the test plants were kept at 10-25° C. or 20-35° C., respectively. The test period extended over 2 to 4 weeks. During this time, the test plants were tended, and their response to the individual treatments was evaluated.
(§4) Evaluation was carried out using a scale from 0 to 100. […]

[2] = tested on: ECHCG; test: as above; assay type: in vivo, Echinocloa crus-galli; conditions: post-emergence method, application rate 0.250 kg/ha; scale from 0 to 100
Source text: as §1, §2, §3, §4

[3] = tested on: AMARE; test: greenhouse herbicidal test, pre-emergence treatment; assay type: in vivo, Amaranthus retroflexus; conditions: pre-emergence method, application rate 0.250 kg/ha; scale from 0 to 100
Source text: as §1, §2, §3, §4

[4] = tested on: ALOMY; test: greenhouse herbicidal test, post-emergence treatment; assay type: in vivo, Alopercurus myosuroides; conditions: post-emergence method, scale from 0 to 100
Source text: as §1, §2, §3
Evaluation was carried out using a scale from 0 to 100. 100 means no emergence of the test plants, or complete destruction of at least the aerial moieties, and 0 means no damage, or normal course of growth. A good herbicidal activity is given at values of 60 to 90 and a very good herbicidal activity is given at values of 90 to 100.
The test plants used in the greenhouse experiments were of the following species: […]

[5] = tested on: ABUTH; test: as above; assay type: in vivo, Abutilon theophrasti; conditions: post-emergence method, application rate 0.250 kg/ha; scale from 0 to 100
Source text: as §1, §2, §3, §4

[6] = tested on: SETFA; test: greenhouse herbicidal test, pre-emergence treatment; assay type: in vivo, Setaria faberi; conditions: pre-emergence method, application rate 1,000 kg/ha; scale from 0 to 100
Source text: as §1, §2, §3, §4

[7] = tested on: ECHCG; test: as above; assay type: in vivo, Echinocloa crus-galli; conditions: pre-emergence method, application rate 1,000 kg/ha; scale from 0 to 100
Source text: as §1, §2, §3, §4

COC(=O)C[C@H](C)NC(=O)C1(C)CC(c2cc(Cl)cc(Cl)c2)=CO1 (single isomer, unassigned) [I3]
herbicidal activity against AMARE ([1]; application rate 1.000 kg/ha): very good (a very good herbicidal activity is given at values of 90 to 100)

COC(=O)[C@@H]1C=C[C@H](NC(=O)C2(C)CC=C(c3cc(F)cc(F)c3)C2=O)C1 (stereo partly drawn) [I111, methyl (1S,4R)-4-[[3-(3,5-difluorophenyl)-1-methyl-2-oxo-cyclopent-3-ene-1-carbonyl]amino]cyclopent-2-ene-1-carboxylate]
herbicidal activity against ECHCG [2]: good (A good herbicidal activity is given at values of 60 to 90)

COC(=O)[C@@H]1C=C[C@H](NC(=O)C2(C(F)(F)F)CC(c3cc(F)cc(F)c3)=CO2)C1 (relative stereo) [I8]
herbicidal activity against AMARE [3]: good (A good herbicidal activity is given at values of 60 to 90)

COC(=O)C[C@H](C)NC(=O)C1(C)CC(c2cc(F)cc(F)c2)=CO1 (single isomer, unassigned) [I1]
herbicidal activity against ALOMY ([4]; application rate 1.000 kg/ha): very good (a very good herbicidal activity is given at values of 90 to 100)

COC(=O)[C@@H]1C=C[C@H](NC(=O)C2(C)CC(c3cc(Cl)cc(Cl)c3)=CO2)C1 (relative stereo) [I6]
herbicidal activity against ALOMY ([4]; application rate 0.250 kg/ha): very good (a very good herbicidal activity is given at values of 90 to 100)

COC(=O)C1CCC(NC(=O)C2(C)CC(c3cc(Cl)cc(Cl)c3)=CO2)C1 (stereo not shown) [I14]
herbicidal activity against ABUTH [5]: good (A good herbicidal activity is given at values of 60 to 90) | herbicidal activity against AMARE ([1]; application rate 0.250 kg/ha): good (A good herbicidal activity is given at values of 60 to 90)

COC(=O)C[C@H](C)NC(=O)C1(C)CC(c2cc(F)cc(F)c2)=CO1 (single isomer, unassigned) [I2]
herbicidal activity against SETFA [6]: good (A good herbicidal activity is given at values of 60 to 90) | herbicidal activity against ALOMY ([4]; application rate 1.000 kg/ha): good (A good herbicidal activity is given at values of 60 to 90) | herbicidal activity against ECHCG [7]: good (A good herbicidal activity is given at values of 60 to 90)
